Data set [1] has as its system HIVLAI. The experiment in a line: Anti-HIV assay, protection from HIV-induced cell death. The format is cell-based. The following applies: read-out: ED50 (concentration that inhibits HIV-induced cell death by 50%); HIVLAI, MT-2 cells, 72 hr. On the procedure: Anti-HIV assays were performed as described above. […] The compounds were then two-fold serially diluted in triplicate. To each 50 μl of diluted compound, 50 μl of HIVLAI was added and the virus-drug mixture was incubated for 1 hr at 37° C. […] Final multiplicity of infection (MOI) was 1-5. Cells were harvested to quantitate cytopathic effect using a neutral red dye assay as described.

Data set [2] concerns HIV-1NL4-3. The experiment in a line: Anti-HIV cytopathicity assay against parental molecular clone. The format is cell-based. On the procedure:
(§1) Cloning and sequencing of virus from the HIVNL4-3 passaged in the presence of 8 μM L-chicoric acid was undertaken to determine the molecular basis for resistance to L-chicoric acid and to isolate a resistant HIV clone.
Assays, as described above, to determine the ED50 for a given compound against the molecular clone HIVNL4-3clone1-D4 and the parental clone HIVNL4-3 give an indication of the selectivity of the compound for inhibition of HIV replication through IN. Resistance to a compound, as measured by an increased ED50, by clone HIVNL4-3clone1-D4, implies selectivity of the compound for IN. Thus clone HIVNL4-3clone1-D4 can be used to screen candidate IN inhibitors for selectivity.
(Cytopathic effects are the visible damage that an infection or toxin causes in cultured cells.)

Data set [3] deals with MT-2 cells. The note with it: 48 hours. From the text: The chemical structures of the compounds are illustrated in FIGS. 1-4. In FIG. 1a, the D- and meso-isomers of L-chicoric acid are identical in this illustrative format. […] The first compound in Table 1, L-chicoric acid, a previously described DCTA, is included for reference. LD5, the 5% lethal dose, is a measure of the toxicity of compound to living, cultured cells. It is the concentration at which cell growth is inhibited by 5%. […] Most simply understood, disintegration is a term used to refer to the reverse of integration.
Cell toxicity and anti-HIV assays were performed as reported above. […] Cells were incubated with drug for 48 hours at 37° C., then harvested for cell viability in a neutral red dye assay as described.

The test system of data set [4] is HIV-1NL4-3clone1-D4. Type of data set: cell-based. The following applies: for Fold Change (ED50 resistant clone vs HIVNL4-3): HIVNL4-3clone1-D4 vs HIVNL4-3; for efficacy against the L-chicoric acid resistant clone: compared with parental HIVNL4-3; for EC50: mean of triplicate infections, read-out: ED50 HIVNL4-3clone1-D4. On the procedure:
as §1
This cloning was accomplished through site-directed mutagenesis introducing several silent mutations immediately upstream and downstream of the integrase gene. These mutations generated two unique restriction sites: an upstream SacII and a downstream XbaI (FIG. 15). Introduction of these mutations allowed the entire integrase gene with only minimal upstream and downstream nucleotides to be digested and “swapped” between drug-resistant and drug-sensitive clones.

Data set [5] has as its target HIV-1 IN (Human immunodeficiency virus type 1 group M subtype B, UniProt P12497). The following applies: read-out: IC50 (IN dependent disintegration); purified HIV IN, MnCl2.
Data set [6] has as its system HIVNL4-3 passaged in the presence of 8 μM L-chicoric acid. Description: Cytopathicity assay against virus passaged in 8 μM L-chicoric acid. The format is cell-based, HIV. The following applies: FIG. 14. On the procedure:
HIVNL4-3 plasmid (a gift from Dr. P. Krogstad, UCLA, Los Angeles, Calif.), was transfected in HeLa cells using Lipofectin® (Gibco/BRL). Excess DNA was removed by washing and cells were co-cultured with H9 cells for 18 hours. The H9 cells were removed and re-cultured in growth medium. When the culture was 100% positive for HIV antigens by indirect immunofluorescence, the virus was inoculated onto H9 cells and incubated at 37° C. for several weeks in the presence of 2 μM L-chicoric acid. When this culture was 100% positive the virus was isolated and one aliquot was passaged in a similar manner in 4 μM L-chicoric acid. Finally, virus was cultured in the presence of 8 μM L-chicoric acid and the resultant virus filter-clarified, aliquoted, and stored at −70° C.
as §1

[7] abbreviates: mean of triplicate infections, read-out: ED50 HIVNL4-3.

The values that follow come from patent publication US20050049242A1 (priority 2000, published 2005).

Like-named read-outs stand apart in the source and are kept apart here.

Turning to `O=C(O[C@@H](C(=O)O)[C@@H](OC(=O)c1cc(O)c(O)c(O)c1)C(=O)O)c1cc(O)c(O)c(O)c1` [Compound 25], the figures for the EC50 in data set [1], in data set [2] (setting [7]) and in data set [4] were 660 nM, 290 nM and 31200 nM, respectively. In addition, the “LD5 (5% lethal dose, concentration at which cell growth is inhibited by 5%)” value in data set [3] came out at 2.7 µM. For the same compound, the “Fold Change (ED50 resistant clone vs HIVNL4-3)” value (shortened to “Fold Change”) in data set [4] worked out at 107. Moreover, in data set [4], the “efficacy against the L-chicoric acid resistant clone” value (shortened to “efficacy”) was “reduced efficacy”.

Turning to `O=C(O[C@@H](C(=O)O)[C@@H](OC(=O)c1ccc(O)c(O)c1)C(=O)O)c1ccc(O)c(O)c1` [Compound 26], the EC50 in data set [1] amounted to 950 nM; in data set [2] (setting [7]), 820 nM; in data set [4], 52500 nM. Besides, in data set [3], the “LD5 (5% lethal dose, concentration at which cell growth is inhibited by 5%)” value worked out at 90 µM. Further, the “Fold Change” value in data set [4] came out at 64. Further, in data set [4], the “efficacy” value is reported as “reduced efficacy”.

For the compound `O=C(Cc1ccc(O)c(O)c1)O[C@@H](C(=O)O)[C@@H](OC(=O)Cc1ccc(O)c(O)c1)C(=O)O` [Compound 28], the EC50 in data set [1] stood at 35000 nM; in data set [2] (setting [7]) it was 15600 nM; in data set [4] it was 62500 nM. The “LD5 (5% lethal dose, concentration at which cell growth is inhibited by 5%)” value in data set [3] came to 70 µM. For the same compound, in data set [4], the “Fold Change” value came out at 4. Further, in data set [4], the “efficacy” value is listed as “reduced efficacy”.

As to “Di-3,4-dihydrodihydroxybenzylidine succinic acid [Compound 38]”, in data set [5], the IC50 is 858 nM. Moreover, the EC50 in data set [1] was determined as 4400 nM.

Take Dicaffeoyl-L-tartaric acid [Compound 1]: in data set [6], the “resistance of passaged virus to the compound” value is given as “completely resistant”. Also, the EC50 in data set [2] (control virus passaged without inhibitor, FIG. 14, read-out: ED50 against HIVNL4-3 control virus) was found to be 400 nM; in data set [2] (setting [7]), 780 nM; in data set [4], 61200 nM. In addition, the results for the “efficacy” value in data set [4] and in data set [4] (listed as L-chicoric acid) were “reduced efficacy” and “resistant”, respectively.
